Like-named read-outs stand apart in the source and are kept apart here. Values belong to the compound of their own block, whether it stands above or below them.
What was measured:
[1] = Intrinsic reactivity of the inhibitors with βME measured with HPLC; format: physicochemical; conditions: 1 mM inhibitor + 600 mM βME, n = 3, mean
Description: E˜I→EI • ii) off-target reactions with ubiquitous sulfhydryls (S) and other nucleophils present in physiologic environments such as cells and body fluids are driven by the intrinsic reactivity of the warhead that is defined by Kchem driving the conversion of S and I to form the sulfhydryl-adduct (SI) [table]

[2] = background statement; cited from earlier work
[3] = background statement; cited from earlier work; remark: listed apart in the source
[4] = test system: pSer473 of PKB/Akt in SKOV3 cells; test: In-Cell Western cellular PI3K signaling, pSer473 of PKB/Akt in SKOV3 cells; format: cell-based; conditions: Homo sapiens
Protocol: Protein phosphorylation was detected as follows: pSer473 of PKB/Akt with rabbit polyclonal antibody from Cell Signaling Technology (CST) (#4058) by In-Cell Western assays, where 1.2×10^4 SKOV3 cells/well in 96-well plates were plated (Cell Carrier, PerkinElmer) for 24 hours (37° C., 5% CO2), as described in Ref.^21.

p110α (PI3Kα) = p110α (PI3Kα) (Homo sapiens, UniProt P42336); test: LanthaScreen determination of kinetic constants (kinact, Ki) for p110α; format: binding; conditions: for Ki: dissociation constant of the first reversible binding, mean of 3; for kinact: read-out: kinact PI3Kα;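 for all read-outs here: covalent inhibition constants for p110α come from LanthaScreen data, fitted globally by numerical integration in KinTek Global Kinetic Explorer software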
[5] = SK-OV-3, SKOV3 cells, mean of 2 or 3 independent measurements, read-out: IC50 pPKB (S473) SKOV3
[6] = mean of 3 independent measurements, global fitting with KinTek

p110α (PI3Kα), sequence (P42336 whole entry): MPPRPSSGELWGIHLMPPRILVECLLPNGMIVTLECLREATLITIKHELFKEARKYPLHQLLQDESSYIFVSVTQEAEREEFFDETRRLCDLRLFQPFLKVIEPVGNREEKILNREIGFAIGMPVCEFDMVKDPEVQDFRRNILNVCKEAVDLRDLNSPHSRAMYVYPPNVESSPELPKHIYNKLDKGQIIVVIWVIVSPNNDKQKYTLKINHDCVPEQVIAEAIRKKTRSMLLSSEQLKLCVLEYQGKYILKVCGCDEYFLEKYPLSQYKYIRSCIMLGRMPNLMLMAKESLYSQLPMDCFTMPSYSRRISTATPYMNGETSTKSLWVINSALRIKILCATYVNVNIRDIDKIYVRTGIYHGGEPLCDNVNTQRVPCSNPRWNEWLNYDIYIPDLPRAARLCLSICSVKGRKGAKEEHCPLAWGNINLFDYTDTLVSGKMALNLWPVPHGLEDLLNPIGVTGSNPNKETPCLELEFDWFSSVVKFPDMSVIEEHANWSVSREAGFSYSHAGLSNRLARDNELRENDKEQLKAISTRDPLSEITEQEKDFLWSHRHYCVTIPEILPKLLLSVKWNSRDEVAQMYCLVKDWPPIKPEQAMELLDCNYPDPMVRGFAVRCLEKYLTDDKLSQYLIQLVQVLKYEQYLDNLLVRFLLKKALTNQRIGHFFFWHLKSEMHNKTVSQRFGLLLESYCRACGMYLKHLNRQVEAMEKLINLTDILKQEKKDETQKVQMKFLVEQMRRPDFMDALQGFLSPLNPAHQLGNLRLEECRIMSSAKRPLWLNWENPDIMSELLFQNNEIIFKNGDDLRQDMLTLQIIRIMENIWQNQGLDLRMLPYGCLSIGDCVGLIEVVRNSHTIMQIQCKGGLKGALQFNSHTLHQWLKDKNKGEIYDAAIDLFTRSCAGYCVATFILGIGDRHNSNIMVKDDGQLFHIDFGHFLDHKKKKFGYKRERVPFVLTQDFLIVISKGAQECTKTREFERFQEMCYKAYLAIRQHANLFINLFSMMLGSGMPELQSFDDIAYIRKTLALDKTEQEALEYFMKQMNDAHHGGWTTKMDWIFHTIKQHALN
p110α (PI3Kα), sequence (P27986 whole entry partner): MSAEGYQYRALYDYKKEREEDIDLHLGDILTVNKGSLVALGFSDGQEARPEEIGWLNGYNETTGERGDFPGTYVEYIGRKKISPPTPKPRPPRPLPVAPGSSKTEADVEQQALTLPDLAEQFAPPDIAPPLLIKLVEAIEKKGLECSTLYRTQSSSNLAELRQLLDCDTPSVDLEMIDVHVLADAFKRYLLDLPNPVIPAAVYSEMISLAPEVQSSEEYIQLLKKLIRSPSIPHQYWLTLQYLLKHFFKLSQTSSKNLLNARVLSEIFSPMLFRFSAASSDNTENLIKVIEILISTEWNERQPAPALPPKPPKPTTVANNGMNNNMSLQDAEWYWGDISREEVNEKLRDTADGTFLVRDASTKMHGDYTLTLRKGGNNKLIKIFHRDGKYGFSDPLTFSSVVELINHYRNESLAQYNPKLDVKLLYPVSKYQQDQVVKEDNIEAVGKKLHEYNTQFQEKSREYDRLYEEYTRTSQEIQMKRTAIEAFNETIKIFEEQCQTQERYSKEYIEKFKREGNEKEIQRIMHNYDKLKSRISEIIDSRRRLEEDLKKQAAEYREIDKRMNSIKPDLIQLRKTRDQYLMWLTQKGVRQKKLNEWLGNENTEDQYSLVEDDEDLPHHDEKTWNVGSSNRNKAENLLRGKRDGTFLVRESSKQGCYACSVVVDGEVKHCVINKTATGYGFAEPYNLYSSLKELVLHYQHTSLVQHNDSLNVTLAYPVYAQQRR

SMILES: C=CC(=O)N1CCC[C@H]1C(=O)NCC(=O)N1CCN(c2nc(-c3cnc(N)nc3C(F)F)nc(N3CCOCC3)n2)CC1 [Compound 28, (S)-1-acryloyl-N-(2-(4-(4-(2-amino-4-(difluoromethyl)pyrimidin-5-yl)-6-morpholino-1,3,5-triazin-2-yl)piperazin-1-yl)-2-oxoethyl)pyrrolidine-2-carboxamide]
kchem [1]: 0.00655 M⁻¹ s⁻¹ | kinact/KI (p110α (PI3Kα); PI3Kα, read-out: kinact/Ki): 44500 M⁻¹ s⁻¹ | Ki (p110α (PI3Kα)): 6.32 nM | kinact (p110α (PI3Kα); [6]): 0.000281 s⁻¹ | IC50 [4, 5]: 301 nM

SMILES: C=CC(=O)N1CC(C(=O)N(C)CC(=O)N2CCN(c3nc(-c4cnc(N)nc4C(F)F)nc(N4CCOCC4)n3)CC2)C1 [Compound 33, 1-acryloyl-N-(2-(4-(4-(2-amino-4-(difluoromethyl)pyrimidin-5-yl)-6-morpholino-1,3,5-triazin-2-yl)piperazin-1-yl)-2-oxoethyl)-N-methylazetidine-3-carboxamide]
kchem [1]: 0.00581 M⁻¹ s⁻¹ | kinact/KI (p110α (PI3Kα)): 1.17e+06 M⁻¹ s⁻¹ | Ki (p110α (PI3Kα)): 6.43 nM | kinact (p110α (PI3Kα)): 0.00757 s⁻¹ | IC50 ([4]; SK-OV-3, read-out: IC50 pPKB (S473) SKOV3): 55 nM

SMILES: C=CC(=O)N1CC(C(=O)NCCC(=O)N2CCN(c3nc(-c4cnc(N)nc4C(F)F)nc(N4CCOCC4)n3)CC2)C1 [Compound 35, 1-acryloyl-N-(3-(4-(4-(2-amino-4-(difluoromethyl)pyrimidin-5-yl)-6-morpholino-1,3,5-triazin-2-yl)piperazin-1-yl)-3-oxopropyl)azetidine-3-carboxamide]
kchem [1]: 0.00662 M⁻¹ s⁻¹ | kinact/KI (p110α (PI3Kα); PI3Kα, read-out: kinact/Ki): 126000 M⁻¹ s⁻¹ | Ki (p110α (PI3Kα)): 13.4 nM | kinact (p110α (PI3Kα); [6]): 0.00169 s⁻¹ | IC50 [4, 5]: 609 nM

SMILES: C=CC(=O)N1CCC(CCCC(=O)N2CCN(c3nc(-c4cnc(N)nc4C(F)F)nc(N4CCOCC4)n3)CC2)CC1 [Compound 47, 4-(1-acryloylpiperidin-4-yl)-1-(4-(4-(2-amino-4-(difluoromethyl)pyrimidin-5-yl)-6-morpholino-1,3,5-triazin-2-yl)piperazin-1-yl)butan-1-one]
kchem [1]: 0.000225 M⁻¹ s⁻¹ | kinact/KI (p110α (PI3Kα)): 70300 M⁻¹ s⁻¹ | Ki (p110α (PI3Kα)): 7.15 nM | kinact (p110α (PI3Kα)): 0.000504 s⁻¹ | IC50 [4, 5]: 24 nM

The remaining compounds from weak to strong by IC50 [4, 5], led by results:

kinact/KI (p110α (PI3Kα); PI3Kα, read-out: kinact/Ki): 40700 M⁻¹ s⁻¹ | Ki (p110α (PI3Kα)): 6.74 nM | kinact (p110α (PI3Kα); [6]): 0.000275 s⁻¹ | IC50 [4, 5]: 204 nM
SMILES: C=CC(=O)N1CCC[C@@H]1C(=O)NCC(=O)N1CCN(c2nc(-c3cnc(N)nc3C(F)F)nc(N3CCOCC3)n2)CC1 [Compound 29, (R)-1-acryloyl-N-(2-(4-(4-(2-amino-4-(difluoromethyl)pyrimidin-5-yl)-6-morpholino-1,3,5-triazin-2-yl)piperazin-1-yl)-2-oxoethyl)pyrrolidine-2-carboxamide]
kchem [1]: 0.0079 M⁻¹ s⁻¹

IC50 [4, 5]: 164 nM
SMILES: CC(C)=CC(=O)CCC(=O)N1CCN(Cc2cc3nc(-c4cccc5[nH]ncc45)nc(N4CCOCC4)c3s2)CC1 [CNX-1351, 1-[4-[[2-(1H-indazol-4-yl)-4-(4-morpholinyl)thieno[3,2-d]pyrimidin-6-yl]methyl]-1-piperazinyl]-6-methyl-5-heptene-1,4-dione, reference compound]
kchem [1]: 0.000222 M⁻¹ s⁻¹ | metabolic stability [2]: metabolic instability | aqueous solubility [3]: low

kinact/KI (p110α (PI3Kα); PI3Kα, read-out: kinact/Ki): 239000 M⁻¹ s⁻¹ | Ki (p110α (PI3Kα)): 4.29 nM | kinact (p110α (PI3Kα); [6]): 0.00102 s⁻¹ | IC50 [4, 5]: 23 nM
SMILES: C=CC(=O)N1CCC(COCC(=O)N2CCN(c3nc(-c4cnc(N)nc4C(F)F)nc(N4CCOCC4)n3)CC2)CC1 [Compound 46, 1-(4-((2-(4-(4-(2-amino-4-(difluoromethyl)pyrimidin-5-yl)-6-morpholino-1,3,5-triazin-2-yl)piperazin-1-yl)-2-oxoethoxy)methyl)piperidin-1-yl)prop-2-en-1-one]
kchem [1]: 0.00029 M⁻¹ s⁻¹

From patent US20240208957A1, “TRIAZINE DERIVATIVE AS REVERSIBLE AND IRREVERSIBLE COVALENT INHIBITORS OF PI3K” (UNIVERSITÄT BASEL, priority 2021, published 2024)
